# Measurements from PubChem BioAssay AID788 (SRMLSC, 2007).
# The source made the active and inactive calls. No rule for the calls is given here.
# Key:
# [1] = system: S. cerevisiae vps1Δ apl2Δ growth inhibition, dose response; assay: vps1Δ apl2Δ double mutant yeast growth inhibitors – S. cerevisiae, background strain comparison, post-Golgi transport modulator project, dose response (AID 788)
# [2] = system: S. cerevisiae wild-type background strain growth inhibition; assay: as above; settings: S. cerevisiae vps1Δ apl2Δ growth inhibition, dose response; measured here: wild-type background strain growth
Structure (SMILES),IC50 [1],IC50 [2]
CCOC(=O)c1ccc(NC(=O)c2ccc(CN3CCOCC3)cc2)cc1,24.9 µM,> 10 µM
Cc1c(Cl)c([N+](=O)[O-])nn1Cc1ccc(C(=O)N/N=C\c2cccc(Br)c2)o1,–,> 10 µM
Cc1ccc(SC(C)C(=O)Nc2ncn[nH]2)cc1 (stereo not drawn),> 10 µM (inactive),> 10 µM
O=C(COc1ccc(Br)cc1F)NC1CCN(Cc2ccccc2)CC1,3.05 µM,> 10 µM
CCOC(=O)C1=C(N)N2C(=O)C(C)SC2=C(C(=O)OC)C1c1ccccc1OC (stereo not drawn),–,0.163 µM
Cc1ccc(C)c(NS(=O)(=O)c2cc(C(=O)N3CCc4ccccc4C3)ccc2Cl)c1,8.09 µM (inactive),6.88 µM
O=C1OCC(CO)(CO)N=C1NNc1ccc(Cl)c(Cl)c1,2.85 µM,3.35 µM
COc1ccc(CN(C(=O)Cc2cccs2)C(C(=O)NC2CCCC2)c2ccncc2)cc1 (stereo not drawn),> 10 µM (inactive),> 10 µM
CCOC(=O)Cn1cc(C=O)c2ccccc21,> 10 µM (inactive),> 10 µM
Cc1ccc(C(=O)NCc2occc2C(=O)O)o1,> 10 µM (inactive),> 10 µM
Cc1cccc(-c2nnc(-c3cccc(NC(=O)Cc4cccs4)c3)o2)c1,–,15.2 µM
CCCC(=O)N1CCN(c2ccc(NC(=O)c3cc4ccccc4o3)cc2Cl)CC1,20.8 µM (inactive),19.2 µM
CN1/C(=C/C2CC(=O)NC2=O)C(C)(C)c2ccccc21 (stereo not drawn),> 10 µM (inactive),> 10 µM
CCC(C)(C)n1nnnc1C(c1cc2cc3c(cc2[nH]c1=O)OCO3)N1CCN(C)CC1 (stereo not drawn),> 10 µM (inactive),> 10 µM
O=C(NCC(c1cccnc1)N1CCN(c2ccc(F)cc2)CC1)OCc1ccccc1 (stereo not drawn),22.9 µM,–
CCc1cc(=O)oc2cc(C)c(CN3CCCC(C)C3)c(O)c12 (stereo not drawn),> 10 µM (inactive),> 10 µM
O=C(Nc1ccccc1)C1=C(O)CC(c2ccco2)CC1=Nc1ccccc1 (stereo not drawn),–,> 10 µM
Cc1cccc(OCC(=O)O/N=C(\N)Cc2ccc(Cl)cc2)c1,> 10 µM (inactive),10.4 µM
COc1ccc(-c2nnc(CSc3nc4ccccc4c(=O)n3C)o2)cc1OC,> 10 µM (inactive),> 10 µM
N#Cc1cn(-c2ccccc2)nc1-c1cc2ccccc2oc1=O,> 10 µM (inactive),> 10 µM

Structure (SMILES),IC50 [1],IC50 [2]
COc1ccc(N2CCN(c3oc(-c4ccco4)nc3C#N)CC2)cc1,> 10 µM (inactive),> 10 µM
O=C(Cc1cccs1)Nc1nc2c(s1)CCCC2,> 10 µM (inactive),> 10 µM
CCCCCOc1ccc(CN2CCOCC2)cc1Cl,3.92 µM,> 10 µM
CCCCSCCCNC(=O)Nc1cccc(OC)c1,> 10 µM (inactive),> 10 µM
CC1CN(CCCCOc2ccc(C(C)C)cc2)CC(C)O1 (stereo not drawn),0.703 µM,> 10 µM
CCSc1nnc(NC(=O)NCC(F)(F)F)s1,> 10 µM (inactive),> 10 µM
Cc1cccc(-c2c3c(=O)n(C)c(=O)n(C)c3cn2C2CCCCC2)c1,> 10 µM (inactive),> 10 µM
CCN1CCN(c2c(Cl)cccc2NC(=O)c2ccc(Br)o2)CC1,> 10 µM (inactive),> 10 µM
O=C(O)Cn1c(SCCOc2ccccc2F)nc2ccccc21,> 10 µM (inactive),> 10 µM
CC(NC(=O)CSc1nc2c(cc1C#N)CN(C)CC2)c1ccccc1 (stereo not drawn),> 10 µM (inactive),> 10 µM
Cc1c(C)c2cc(Cl)c(O)c(CN3CCN(C)CC3)c2oc1=O,> 10 µM (inactive),> 10 µM
C=C(C)C1CC=C(CN2CC(C)OC(C)C2)CC1 (stereo not drawn),4.44 µM,> 10 µM
CC1CC(C)CN(CC(C)(C)NS(=O)(=O)c2ccc(Cl)cc2)C1 (stereo not drawn),–,> 10 µM
Cc1cccc(N2CCN(CC(=O)Nc3nccs3)CC2)c1C,> 10 µM (inactive),> 10 µM
Cc1ccc(C(=O)OCn2ncc(Cl)c(Cl)c2=O)cc1,4.22 µM,4.62 µM
CCCn1c(SCc2cc(=O)oc3ccc4ccccc4c23)n[nH]c1=O,> 10 µM (inactive),> 10 µM
COc1ccc(NC(=O)N(C2CCCCC2)C(C)c2cccnc2)c(OC)c1 (stereo not drawn),9.51 µM,16.7 µM
O=[N+]([O-])c1cc(C(F)(F)F)ccc1N/N=C/c1cc2ccccc2nc1Cl,> 10 µM (inactive),> 10 µM
CCCCCCCCNc1ncnc2ccccc12,> 10 µM (inactive),14.8 µM
O=C(C1CCCN(S(=O)(=O)c2ccc(Cl)cc2)C1)N(Cc1cccs1)C1CC1 (stereo not drawn),> 10 µM (inactive),–
